Results published in PMC3899525 (Cell, 2013).

Target: T1, Gr21a/Gr63a heteromeric CO2 receptor (ab1C neuron) (Drosophila melanogaster, UniProt Q9VPT1+Q9VZL7)
T1 sequence (Q9VPT1 1-447): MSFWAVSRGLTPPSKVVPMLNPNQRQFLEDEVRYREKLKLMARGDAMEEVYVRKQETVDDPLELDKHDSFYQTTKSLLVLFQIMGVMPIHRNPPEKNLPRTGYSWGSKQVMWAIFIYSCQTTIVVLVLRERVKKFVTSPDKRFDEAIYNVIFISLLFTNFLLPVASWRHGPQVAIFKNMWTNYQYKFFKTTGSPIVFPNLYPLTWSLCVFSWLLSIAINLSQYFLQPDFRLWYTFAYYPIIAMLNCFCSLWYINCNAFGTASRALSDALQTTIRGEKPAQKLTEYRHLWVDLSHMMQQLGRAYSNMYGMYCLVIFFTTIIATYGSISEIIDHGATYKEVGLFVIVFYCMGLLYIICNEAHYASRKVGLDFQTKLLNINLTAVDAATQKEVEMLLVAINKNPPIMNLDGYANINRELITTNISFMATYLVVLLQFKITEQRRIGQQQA
T1 sequence (Q9VZL7 1-512): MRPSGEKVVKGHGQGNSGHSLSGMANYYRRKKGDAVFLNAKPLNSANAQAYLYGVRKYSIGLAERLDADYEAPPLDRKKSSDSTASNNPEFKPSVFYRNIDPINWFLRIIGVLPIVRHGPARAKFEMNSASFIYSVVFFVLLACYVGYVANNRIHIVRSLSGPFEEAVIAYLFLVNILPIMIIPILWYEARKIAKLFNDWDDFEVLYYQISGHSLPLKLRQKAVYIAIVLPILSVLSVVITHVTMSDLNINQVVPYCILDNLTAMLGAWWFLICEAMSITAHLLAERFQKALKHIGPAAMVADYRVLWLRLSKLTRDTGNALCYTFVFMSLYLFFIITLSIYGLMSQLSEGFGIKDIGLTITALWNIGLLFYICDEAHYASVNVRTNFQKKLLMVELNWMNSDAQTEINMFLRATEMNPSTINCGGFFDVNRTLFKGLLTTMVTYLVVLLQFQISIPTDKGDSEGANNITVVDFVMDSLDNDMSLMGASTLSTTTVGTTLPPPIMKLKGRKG
Test: single-sensillum recording of ab1C neuron
Format: cell-based
Settings: inhibitor; orco mutant flies; native neuron in vivo

Q: How did the “single-sensillum recording of ab1C neuron” value turn out when `CCOC(=O)C(C)=O` [ethyl pyruvate] was run?
A: the cpA inhibitor ethyl pyruvate also effectively inhibited the ab1C neuron
